Laboratory results taken from ChEMBL document CHEMBL6127029, “Glutathione-dependent degradation of SMARCA2/4 for targeted lung cancer therapy with improved selectivity” (Eur J Med Chem, 2024).
Active and inactive are the calls of the source. The rule behind the calls is not given here.

What was measured:
[1] = target: T1, von Hippel-Lindau disease tumor suppressor/SWI/SNF-related matrix-associated actin-dependent regulator of chromatin subfamily A member 2 (Homo sapiens) (UniProt P51531+P40337); assay: PROTAC activity at VHL/SMARCA2 in human A549 cells assessed as induction of SMARCA2 degradation at 1 uM incubated for 24 hrs by Western blotting analysis; format: cell-based
T1 sequence (P40337 whole entry, looked up): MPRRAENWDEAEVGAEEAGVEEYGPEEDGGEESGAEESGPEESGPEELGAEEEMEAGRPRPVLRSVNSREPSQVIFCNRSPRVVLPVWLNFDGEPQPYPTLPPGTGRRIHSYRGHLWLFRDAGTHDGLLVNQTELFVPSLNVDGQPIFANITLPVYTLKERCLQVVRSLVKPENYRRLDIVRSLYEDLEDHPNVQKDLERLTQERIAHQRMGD
T1 sequence (P51531 whole entry, looked up): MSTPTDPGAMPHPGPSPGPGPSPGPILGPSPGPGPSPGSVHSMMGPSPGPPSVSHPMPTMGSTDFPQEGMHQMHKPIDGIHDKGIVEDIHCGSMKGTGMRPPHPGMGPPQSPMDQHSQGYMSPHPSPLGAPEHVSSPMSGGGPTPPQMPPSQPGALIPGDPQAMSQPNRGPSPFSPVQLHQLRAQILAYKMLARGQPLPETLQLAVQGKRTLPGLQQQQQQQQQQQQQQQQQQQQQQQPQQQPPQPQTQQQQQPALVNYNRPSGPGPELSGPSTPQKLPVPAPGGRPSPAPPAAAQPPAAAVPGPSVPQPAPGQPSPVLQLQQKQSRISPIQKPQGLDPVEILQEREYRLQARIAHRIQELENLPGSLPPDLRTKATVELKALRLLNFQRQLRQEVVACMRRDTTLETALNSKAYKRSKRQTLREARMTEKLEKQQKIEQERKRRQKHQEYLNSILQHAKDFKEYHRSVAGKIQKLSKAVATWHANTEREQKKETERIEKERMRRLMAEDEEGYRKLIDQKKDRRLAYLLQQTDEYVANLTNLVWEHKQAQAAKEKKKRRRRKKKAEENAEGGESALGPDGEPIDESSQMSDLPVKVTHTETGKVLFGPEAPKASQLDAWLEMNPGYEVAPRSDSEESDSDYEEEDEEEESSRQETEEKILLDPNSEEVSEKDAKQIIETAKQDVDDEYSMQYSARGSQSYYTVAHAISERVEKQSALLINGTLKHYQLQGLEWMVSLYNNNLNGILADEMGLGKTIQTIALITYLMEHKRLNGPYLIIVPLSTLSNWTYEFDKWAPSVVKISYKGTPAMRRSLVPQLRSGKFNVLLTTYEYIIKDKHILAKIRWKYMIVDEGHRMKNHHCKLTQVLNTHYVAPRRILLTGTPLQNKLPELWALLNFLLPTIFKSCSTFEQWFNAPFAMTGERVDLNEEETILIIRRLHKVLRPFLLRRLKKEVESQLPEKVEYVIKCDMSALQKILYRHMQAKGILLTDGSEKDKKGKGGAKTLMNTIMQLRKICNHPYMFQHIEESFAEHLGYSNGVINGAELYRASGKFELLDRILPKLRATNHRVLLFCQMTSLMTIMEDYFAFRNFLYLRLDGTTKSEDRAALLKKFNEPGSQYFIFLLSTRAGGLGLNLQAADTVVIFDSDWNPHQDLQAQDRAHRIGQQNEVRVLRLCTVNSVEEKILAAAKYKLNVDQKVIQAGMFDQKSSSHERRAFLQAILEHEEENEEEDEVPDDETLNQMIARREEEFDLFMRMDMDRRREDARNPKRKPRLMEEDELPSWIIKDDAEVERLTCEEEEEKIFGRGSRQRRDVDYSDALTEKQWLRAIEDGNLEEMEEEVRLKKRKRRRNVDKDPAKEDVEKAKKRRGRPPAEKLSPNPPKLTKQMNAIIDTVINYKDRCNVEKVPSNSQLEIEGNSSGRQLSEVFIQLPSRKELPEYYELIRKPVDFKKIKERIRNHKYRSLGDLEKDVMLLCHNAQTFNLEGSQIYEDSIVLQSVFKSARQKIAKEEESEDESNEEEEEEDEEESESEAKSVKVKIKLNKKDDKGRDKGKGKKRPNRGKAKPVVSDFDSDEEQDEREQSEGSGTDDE

[2] = target: T1, von Hippel-Lindau disease tumor suppressor/SWI/SNF-related matrix-associated actin-dependent regulator of chromatin subfamily A member 2 (Homo sapiens); assay: PROTAC activity at VHL/SMARCA2 in human HEK-293T cells assessed as induction of SMARCA2 degradation at 1 uM incubated for 24 hrs by Western blotting analysis relative to control; format: cell-based
[3] = target: T2, von Hippel-Lindau disease tumor suppressor/SWI/SNF-related matrix-associated actin-dependent regulator of chromatin subfamily A member 4 (Homo sapiens) (UniProt P51532+P40337); assay: PROTAC activity at VHL/SMARCA4 in human HEK-293T cells assessed as induction of SMARCA4 degradation at 1 uM incubated for 24 hrs by Western blotting analysis relative to control; format: cell-based
T2 sequence (P40337 whole entry, looked up): as the sequence (P40337 whole entry, looked up) above
T2 sequence (P51532 whole entry, looked up): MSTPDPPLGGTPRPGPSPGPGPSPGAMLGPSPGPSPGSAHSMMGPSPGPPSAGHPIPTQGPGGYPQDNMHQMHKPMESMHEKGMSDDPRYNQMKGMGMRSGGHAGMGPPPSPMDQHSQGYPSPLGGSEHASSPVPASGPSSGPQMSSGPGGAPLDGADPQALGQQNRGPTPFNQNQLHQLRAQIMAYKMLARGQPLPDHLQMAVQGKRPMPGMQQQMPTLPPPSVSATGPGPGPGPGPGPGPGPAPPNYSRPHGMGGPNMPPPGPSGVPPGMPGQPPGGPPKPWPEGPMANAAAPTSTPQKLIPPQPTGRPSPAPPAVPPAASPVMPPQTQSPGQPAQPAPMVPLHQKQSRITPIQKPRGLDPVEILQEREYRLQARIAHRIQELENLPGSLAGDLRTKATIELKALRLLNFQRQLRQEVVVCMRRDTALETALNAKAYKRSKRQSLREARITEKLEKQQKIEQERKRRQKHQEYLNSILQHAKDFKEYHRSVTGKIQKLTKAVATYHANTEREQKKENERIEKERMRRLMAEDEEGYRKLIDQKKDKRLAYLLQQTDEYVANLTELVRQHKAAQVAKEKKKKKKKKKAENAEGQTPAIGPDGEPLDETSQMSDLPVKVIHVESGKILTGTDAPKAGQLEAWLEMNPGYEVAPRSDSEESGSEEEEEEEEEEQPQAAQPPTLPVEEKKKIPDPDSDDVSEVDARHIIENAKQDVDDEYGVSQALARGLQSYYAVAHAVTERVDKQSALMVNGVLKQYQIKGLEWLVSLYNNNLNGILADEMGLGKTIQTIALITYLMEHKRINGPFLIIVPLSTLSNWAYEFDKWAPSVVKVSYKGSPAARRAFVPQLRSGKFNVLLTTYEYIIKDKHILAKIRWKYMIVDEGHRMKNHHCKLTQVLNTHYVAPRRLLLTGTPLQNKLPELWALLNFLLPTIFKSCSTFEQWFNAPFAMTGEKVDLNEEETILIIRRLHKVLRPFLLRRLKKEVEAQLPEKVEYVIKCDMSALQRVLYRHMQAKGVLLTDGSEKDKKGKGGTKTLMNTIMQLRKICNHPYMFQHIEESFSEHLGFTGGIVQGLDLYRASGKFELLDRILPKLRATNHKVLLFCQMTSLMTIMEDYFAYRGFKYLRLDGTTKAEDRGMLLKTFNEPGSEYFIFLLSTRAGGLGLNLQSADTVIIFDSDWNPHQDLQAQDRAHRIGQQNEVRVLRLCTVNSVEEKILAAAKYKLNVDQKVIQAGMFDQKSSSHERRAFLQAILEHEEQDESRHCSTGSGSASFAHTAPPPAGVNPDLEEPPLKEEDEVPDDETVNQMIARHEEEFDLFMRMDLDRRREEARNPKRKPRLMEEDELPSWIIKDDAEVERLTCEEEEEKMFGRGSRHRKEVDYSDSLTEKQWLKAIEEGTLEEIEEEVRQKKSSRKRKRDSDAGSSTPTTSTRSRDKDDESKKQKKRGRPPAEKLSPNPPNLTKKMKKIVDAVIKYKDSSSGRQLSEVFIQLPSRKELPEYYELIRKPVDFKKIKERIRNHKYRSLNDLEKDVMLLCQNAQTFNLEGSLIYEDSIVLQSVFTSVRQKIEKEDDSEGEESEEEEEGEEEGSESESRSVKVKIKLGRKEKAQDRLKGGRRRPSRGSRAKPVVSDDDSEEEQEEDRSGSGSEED

[4] = target: T1, von Hippel-Lindau disease tumor suppressor/SWI/SNF-related matrix-associated actin-dependent regulator of chromatin subfamily A member 2 (Homo sapiens); assay: PROTAC activity at VHL/SMARCA2 in human A549 cells assessed as induction of SMARCA2 degradation at 1 uM by Western blotting analysis; format: cell-based; details: TDE = time-dependent effect
[5] = target: T1, von Hippel-Lindau disease tumor suppressor/SWI/SNF-related matrix-associated actin-dependent regulator of chromatin subfamily A member 2 (Homo sapiens); assay: PROTAC activity at VHL/SMARCA2 in human NCI-H1299 cells assessed as induction of SMARCA2 degradation at 1 uM by Western blotting analysis; format: cell-based; details: TDE = time-dependent effect
[6] = target: T1, von Hippel-Lindau disease tumor suppressor/SWI/SNF-related matrix-associated actin-dependent regulator of chromatin subfamily A member 2 (Homo sapiens); assay: PROTAC activity at VHL/SMARCA2 in human A549 cells assessed as induction of SMARCA2 degradation at 1 uM incubated for 8 hrs in presence of GSH scavenger NEM by Western blotting analysis; format: cell-based
[7] = target: T1, von Hippel-Lindau disease tumor suppressor/SWI/SNF-related matrix-associated actin-dependent regulator of chromatin subfamily A member 2 (Homo sapiens); assay: PROTAC activity at VHL/SMARCA2 in human A549 cells assessed as induction of SMARCA2 degradation at 1 uM pretreated with MG132 followed by compound addition and measured after 8 hrs by Western blotting analysis; format: cell-based
[8] = target: T1, von Hippel-Lindau disease tumor suppressor/SWI/SNF-related matrix-associated actin-dependent regulator of chromatin subfamily A member 2 (Homo sapiens); assay: PROTAC activity at VHL/SMARCA2 in human A549 cells assessed as induction of SMARCA2 degradation at 1 uM pretreated with MLN4924 followed by compound addition and measured after 8 hrs by Western blotting analysis; format: cell-based
[9] = target: T1, von Hippel-Lindau disease tumor suppressor/SWI/SNF-related matrix-associated actin-dependent regulator of chromatin subfamily A member 2 (Homo sapiens); assay: PROTAC activity at VHL/SMARCA2 in human A549 cells assessed as induction of SMARCA2 degradation at 1 uM pretreated with 2-(4-(3-Amino-6-(2-hydroxyphenyl)pyridazin-4-yl)piperazin-1-yl) acetic acid trifluoroacetate followed by compound addition and measured after 8 hrs by Western blotting analysis; format: cell-based
[10] = target: T1, von Hippel-Lindau disease tumor suppressor/SWI/SNF-related matrix-associated actin-dependent regulator of chromatin subfamily A member 2 (Homo sapiens); assay: PROTAC activity at VHL/SMARCA2 in human A549 cells assessed as induction of SMARCA2 degradation at 1 uM pretreated with VHL-ligand followed by compound addition and measured after 8 hrs by Western blotting analysis; format: cell-based
[11] = target: T1, von Hippel-Lindau disease tumor suppressor/SWI/SNF-related matrix-associated actin-dependent regulator of chromatin subfamily A member 2 (Homo sapiens); assay: PROTAC activity at VHL/SMARCA2 in human 786-0 cells harboring mutated VHL assessed as induction of SMARCA2 degradation at 0.1 to 5 uM incubated for 8 hrs by Western blotting analysis; format: cell-based; details: dose 0.1-5 µM
[12] = target: T2, von Hippel-Lindau disease tumor suppressor/SWI/SNF-related matrix-associated actin-dependent regulator of chromatin subfamily A member 4 (Homo sapiens); assay: PROTAC activity at VHL/SMARCA4 in human 786-0 cells harboring mutated VHL assessed as induction of SMARCA4 degradation at 0.1 to 5 uM incubated for 8 hrs by Western blotting analysis; format: cell-based; details: dose 0.1-5 µM
[13] = target: T1, von Hippel-Lindau disease tumor suppressor/SWI/SNF-related matrix-associated actin-dependent regulator of chromatin subfamily A member 2 (Homo sapiens); assay: PROTAC activity at VHL/SMARCA2 in human NCI-H1299 cells harboring shRNA mediated VHL knockdown assessed as induction of SMARCA2 degradation at 0.1 to 2 uM incubated for 8 hrs by Western blotting analysis; format: cell-based; details: dose 0.1-2 µM
[14] = target: T1, von Hippel-Lindau disease tumor suppressor/SWI/SNF-related matrix-associated actin-dependent regulator of chromatin subfamily A member 2 (Homo sapiens); assay: PROTAC activity at VHL/SMARCA2 in human A549 cells harboring shRNA mediated VHL knockdown assessed as induction of SMARCA2 degradation at 0.1 to 2 uM incubated for 8 hrs by Western blotting analysis; format: cell-based; details: dose 0.1-2 µM
NCI-H1299 = assay: Cytotoxicity against human NCI-H1299 cells assessed as inhibition of cell growth incubated for 3 days by MTT assay; format: functional, cell-based; details: NCI-H1299, 72 h
A549 [15] = assay: Cytotoxicity against human A549 cells assessed as inhibition of cell growth incubated for 3 days by MTT assay; format: functional, cell-based; details: A549, 72 h
A549 [16] = assay: Inhibition of cell migration in human A549 cells at 10 uM incubated for 36 hrs by scratch wound healing based fluorescent microscopic analysis; format: functional
A549 [17] = assay: Inhibition of colony formation in human A549 cells assessed as reduction in colony size at 0.8 to 20 uM incubated for 13 days by crystal violet staining based analysis; format: functional, cell-based; details: dose 0.8-20 µM, time 13.0 day
A549 [18] = assay: Inhibition of colony formation in human A549 cells assessed as reduction in colony number at 0.8 to 20 uM incubated for 13 days by crystal violet staining based analysis; format: functional, cell-based; details: dose 0.8-20 µM, time 13.0 day
HuLEC-5a [19] = assay: Inhibition of colony formation in human HuLEC-5a cells assessed as reduction in colony size at 0.8 to 20 uM incubated for 13 days by crystal violet staining based analysis; format: functional, cell-based; details: dose 0.8-20 µM, time 13.0 day
HuLEC-5a [20] = assay: Inhibition of colony formation in human HuLEC-5a cells assessed as reduction in colony number at 0.8 to 20 uM incubated for 13 days by crystal violet staining based analysis; format: functional, cell-based; details: dose 0.8-20 µM, time 13.0 day
A549 [21] = assay: Antitumor activity against human A549 cells xenografted in BALB/c mouse assessed as reduction in tumor size at 80 mg/kg,IT(Intratumoral) administrated every four days for 16 days; format: functional, organism-based; details: time 16.0 day
A549 [22] = assay: Antitumor activity against human A549 cells xenografted in BALB/c mouse assessed as reduction in tumor volume at 80 mg/kg,IT(Intratumoral) administrated every four days for 16 days; format: functional, organism-based; details: time 16.0 day
A549 [23] = assay: Antitumor activity against human A549 cells xenografted in BALB/c mouse assessed as reduction in tumor weight at 80 mg/kg,IT(Intratumoral) administrated every four days for 16 days; format: functional, organism-based; details: time 16.0 day
[24] = Toxicity in BALB/c mouse xenografted with human A549 cells assessed as change in body weight at 80 mg/kg,IT(Intratumoral) administrated every four days for 16 days; format: organism-based; details: in vivo, other, 384 h, time 16 day
A549 [25] = assay: Antitumor activity against human A549 cells xenografted in BALB/c mouse assessed as downregulation of SMARCA2 expression at 80 mg/kg,IT(Intratumoral) administrated every four days for 16 days by Western blotting analysis; format: functional, organism-based; details: time 16.0 day
A549 [26] = assay: Antitumor activity against human A549 cells xenografted in BALB/c mouse assessed as upregulation of cleaved caspase-3 expression at 80 mg/kg,IT(Intratumoral) administrated every four days for 16 days by Western blotting analysis; format: functional, organism-based; details: time 16.0 day
[27] = Toxicity in BALB/c mouse xenografted with human A549 cells assessed as morphological change in heart at 80 mg/kg,IT(Intratumoral) administrated every four days for 16 days by hematoxylin and eosin staining based microscopic analysis; format: organism-based; details: in vivo, other, 384 h, time 16 day
[28] = Toxicity in BALB/c mouse xenografted with human A549 cells assessed as morphological change in liver at 80 mg/kg,IT(Intratumoral) administrated every four days for 16 days by hematoxylin and eosin staining based microscopic analysis; format: organism-based; details: in vivo, other, 384 h, time 16 day
[29] = Toxicity in BALB/c mouse xenografted with human A549 cells assessed as morphological change in spleen at 80 mg/kg,IT(Intratumoral) administrated every four days for 16 days by hematoxylin and eosin staining based microscopic analysis; format: organism-based; details: in vivo, other, 384 h, time 16 day
[30] = Toxicity in BALB/c mouse xenografted with human A549 cells assessed as morphological change in lung at 80 mg/kg,IT(Intratumoral) administrated every four days for 16 days by hematoxylin and eosin staining based microscopic analysis; format: organism-based; details: in vivo, other, 384 h, time 16 day
[31] = Toxicity in BALB/c mouse xenografted with human A549 cells assessed as morphological change in kidney at 80 mg/kg,IT(Intratumoral) administrated every four days for 16 days by hematoxylin and eosin staining based microscopic analysis; format: organism-based; details: in vivo, other, 384 h, time 16 day
A549 [32] = assay: Antitumor activity against human A549 cells xenografted in BALB/c mouse assessed as downregulation of SMARCA2 expression at 80 mg/kg,IT(Intratumoral) administrated every four days for 16 days by immunohistochemistry analysis; format: functional, organism-based; details: time 16.0 day
A549 [33] = assay: Antitumor activity against human A549 cells xenografted in BALB/c mouse assessed as upregulation of cleaved caspase-3 expression at 80 mg/kg,IT(Intratumoral) administrated every four days for 16 days by immunohistochemistry analysis; format: functional, organism-based; details: time 16.0 day
A549 [34] = assay: Antitumor activity against human A549 cells xenografted in BALB/c mouse assessed as upregulation of Ki67 expression at 80 mg/kg,IT(Intratumoral) administrated every four days for 16 days by immunohistochemistry analysis; format: functional, organism-based; details: time 16.0 day
A549 [35] = assay: Antitumor activity against human A549 cells xenografted in BALB/c mouse assessed as upregulation of gamma-H2AX expression at 80 mg/kg,IT(Intratumoral) administrated every four days for 16 days by immunohistochemistry analysis; format: functional, organism-based; details: time 16.0 day
[36] = Stability of the compound in cell culture medium containing 10% fetal bovine serum at 50 uM incubated for 72 hrs by HPLC analysis; format: physicochemical, cell-free; details: cattle
[37] = Stability in mouse plasma at 10 uM incubated for 24 hrs by HPLC analysis; format: ADME, cell-free

Cc1ncsc1-c1ccc(CNC(=O)[C@@H]2C[C@@H](O)CN2C(=O)[C@@H](NC(=O)CN2CCN(c3cc(-c4ccccc4OS(=O)(=O)c4ccc([N+](=O)[O-])cc4)nnc3N)CC2)C(C)(C)C)cc1
Activity [1]: Active
Activity [2]: inactive
Activity [3]: inactive
Activity [4]: Tde
Activity [5]: Tde
Activity [6]: inactive
Activity [7]: inactive
Activity [8]: inactive
Activity [9]: inactive
Activity [10]: inactive
Activity [11]: inactive
Activity [12]: inactive
Activity [13]: inactive
Activity [14]: inactive
IC50 (NCI-H1299): 21.8 µM
IC50 (A549 [15]): 9.1 µM
inhibition (A549 [16]): Active
inhibition (A549 [17]): Active
inhibition (A549 [18]): Active
inhibition (HuLEC-5a [19]): inactive
inhibition (HuLEC-5a [20]): inactive
Activity (A549 [21]): Active
Activity (A549 [22]): Active
Activity (A549 [23]): Active
Activity [24]: Non-Toxic
Activity (A549 [25]): Active
Activity (A549 [26]): Active
Activity [27]: Non-Toxic
Activity [28]: Non-Toxic
Activity [29]: Non-Toxic
Activity [30]: Non-Toxic
Activity [31]: Non-Toxic
Activity (A549 [32]): Active
Activity (A549 [33]): Active
Activity (A549 [34]): Active
Activity (A549 [35]): Active
Stability [36]: Stable
Stability [37]: Stable
